The text below walks through data of PubChem BioAssay AID1671241.

What is called IC50 is the point on the concentration scale where inhibition reaches its midpoint.

In the test the target is Macrophage colony-stimulating factor 1 receptor (Homo sapiens) (UniProt P07333). The test can be described thus: inhibition of human FMS receptor kinase activity – biochemical, Z'-LYTE, FRET, protease-coupled, direct format, dose response (AID 1671241). The conditions noted are these: Z'-LYTE FRET kinase assay, CSF1R.
Chain of Macrophage colony-stimulating factor 1 receptor (Homo sapiens) (P07333 whole entry, looked up): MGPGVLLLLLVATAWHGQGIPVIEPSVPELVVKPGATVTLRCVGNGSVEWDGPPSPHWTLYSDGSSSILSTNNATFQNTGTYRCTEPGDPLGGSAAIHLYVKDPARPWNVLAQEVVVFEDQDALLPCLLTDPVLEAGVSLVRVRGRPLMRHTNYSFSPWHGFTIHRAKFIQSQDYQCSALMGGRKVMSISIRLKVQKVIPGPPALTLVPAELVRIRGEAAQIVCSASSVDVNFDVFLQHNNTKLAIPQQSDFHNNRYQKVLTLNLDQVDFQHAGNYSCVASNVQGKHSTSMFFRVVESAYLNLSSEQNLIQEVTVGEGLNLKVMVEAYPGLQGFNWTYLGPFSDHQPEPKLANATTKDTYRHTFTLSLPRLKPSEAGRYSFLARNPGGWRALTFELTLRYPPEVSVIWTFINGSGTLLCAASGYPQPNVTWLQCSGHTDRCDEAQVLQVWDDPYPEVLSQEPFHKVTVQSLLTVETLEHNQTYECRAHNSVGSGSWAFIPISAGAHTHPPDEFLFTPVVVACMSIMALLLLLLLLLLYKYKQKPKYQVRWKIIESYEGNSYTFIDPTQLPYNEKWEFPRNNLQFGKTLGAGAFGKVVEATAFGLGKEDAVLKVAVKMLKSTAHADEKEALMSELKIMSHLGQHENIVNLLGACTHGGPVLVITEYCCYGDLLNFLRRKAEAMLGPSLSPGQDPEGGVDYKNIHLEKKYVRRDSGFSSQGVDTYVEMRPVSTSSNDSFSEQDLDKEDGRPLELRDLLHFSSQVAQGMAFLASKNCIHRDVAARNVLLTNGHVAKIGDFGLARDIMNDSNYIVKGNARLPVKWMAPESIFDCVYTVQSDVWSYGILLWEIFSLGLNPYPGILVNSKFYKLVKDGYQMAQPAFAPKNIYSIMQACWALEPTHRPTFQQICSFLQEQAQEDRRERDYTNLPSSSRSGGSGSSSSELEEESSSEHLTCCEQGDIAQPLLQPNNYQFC

`COc1cc2ncnc(Nc3cccc(Cl)c3)c2cc1OC`: the IC50 was 6.02 µM.
